According to the supplement of paper PMC10307832:

Experiments:
Assay in all cases: relative viability (nuclei count vs DMSO), 5 days (fraction); higher = more cells survive
NCI-H358 = system: NCI-H358
Method in brief: (§1)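 A single step with final 0.05% Triton X-100, 1% formaldehyde and 1 ug/ml Hoechst fixed the cells and stained nuclei 5 days after treatment. Lung cancer cell lines in 1536-well plates had been treated by pin tool the day after seeding with one drug alone or a fixed anchor-drug dose plus five library-drug doses (not always all listed) in √10 steps, and nuclei were counted on 4× images. Relative viability is the ratio of nuclei in treated wells to nuclei in vehicle wells, taken as the median of duplicate plates.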

COR-L 105 = system: COR-L 105
Method in brief: as §1

EPLC-272H = system: EPLC-272H
Method in brief: as §1

BEN = system: BEN
Method in brief: as §1

H3255 = system: H3255
Method in brief: as §1

NCI-H2087 = system: NCI-H2087
Method in brief: as §1

SW 1573 = system: SW 1573
Method in brief: as §1

HOP-62 = system: HOP-62
Method in brief: as §1

NCI-H2085 = system: NCI-H2085
Method in brief: as §1

PC-3 [JPC-3] = system: PC-3 [JPC-3]
Method in brief: as §1

NCI-H647 = system: NCI-H647
Method in brief: as §1

LCLC-97TM1 = system: LCLC-97TM1
Method in brief: as §1

NCI-H1975 = system: NCI-H1975
Method in brief: as §1

NCI-H1395 = system: NCI-H1395
Method in brief: as §1

HCC-44 = system: HCC-44
Method in brief: as §1

NCI-H1437 = system: NCI-H1437
Method in brief: as §1

LOU-NH91 = system: LOU-NH91
Method in brief: as §1

201T = system: 201T
Method in brief: as §1

NCI-H1666 = system: NCI-H1666
Method in brief: as §1

LU99A = system: LU99A
Method in brief: as §1

HCC-827 = system: HCC-827
Method in brief: as §1

EKVX = system: EKVX
Method in brief: as §1

C=C1C(=O)O[C@@H](CCCCCCCC)[C@@H]1C(=O)O [C-75] + CS(=O)(=O)CCNCc1ccc(-c2ccc3ncnc(Nc4ccc(OCc5cccc(F)c5)c(Cl)c4)c3c2)o1 [Lapatinib] (partner 2 µM)
relative viability (NCI-H358; first compound 0.08 µM): 0.588
relative viability (NCI-H358; first compound 0.253 µM): 0.434
relative viability (NCI-H358; first compound 0.8 µM): 0.383
relative viability (NCI-H358; first compound 2.53 µM): 0.458
relative viability (NCI-H358; first compound 8 µM): 0.599
relative viability (COR-L 105; first compound 0.08 µM): 0.299
relative viability (COR-L 105; first compound 0.253 µM): 0.315
relative viability (COR-L 105; first compound 0.8 µM): 0.374
relative viability (COR-L 105; first compound 2.53 µM): 0.309
relative viability (COR-L 105; first compound 8 µM): 0.414
relative viability (EPLC-272H; first compound 0.08 µM): 0.974
relative viability (EPLC-272H; first compound 0.253 µM): 0.805
relative viability (EPLC-272H; first compound 0.8 µM): 1.01
relative viability (EPLC-272H; first compound 2.53 µM): 0.592
relative viability (EPLC-272H; first compound 8 µM): 0.789
relative viability (BEN; first compound 0.08 µM): 0.793
relative viability (BEN; first compound 0.253 µM): 0.785
relative viability (BEN; first compound 0.8 µM): 0.682
relative viability (BEN; first compound 2.53 µM): 0.645
relative viability (BEN; first compound 8 µM): 0.694
relative viability (H3255; first compound 0.08 µM): 0.277
relative viability (H3255; first compound 0.253 µM): 0.314
relative viability (H3255; first compound 0.8 µM): 0.254
relative viability (H3255; first compound 2.53 µM): 0.21
relative viability (H3255; first compound 8 µM): 0.274
relative viability (NCI-H2087; first compound 0.08 µM): 1.07
relative viability (NCI-H2087; first compound 0.253 µM): 0.975
relative viability (NCI-H2087; first compound 0.8 µM): 1.1
relative viability (NCI-H2087; first compound 2.53 µM): 0.868
relative viability (NCI-H2087; first compound 8 µM): 0.776
relative viability (SW 1573; first compound 0.08 µM): 1.14
relative viability (SW 1573; first compound 0.253 µM): 1.14
relative viability (SW 1573; first compound 0.8 µM): 1.15
relative viability (SW 1573; first compound 2.53 µM): 1.04
relative viability (SW 1573; first compound 8 µM): 0.792
relative viability (HOP-62; first compound 0.08 µM): 1.07
relative viability (HOP-62; first compound 0.253 µM): 1.09
relative viability (HOP-62; first compound 0.8 µM): 0.955
relative viability (HOP-62; first compound 2.53 µM): 0.713
relative viability (HOP-62; first compound 8 µM): 0.817
relative viability (NCI-H2085; first compound 0.08 µM): 0.802
relative viability (NCI-H2085; first compound 0.253 µM): 0.867
relative viability (NCI-H2085; first compound 0.8 µM): 0.679
relative viability (NCI-H2085; first compound 2.53 µM): 0.671
relative viability (NCI-H2085; first compound 8 µM): 0.769
relative viability (PC-3 [JPC-3]; first compound 0.08 µM): 0.449
relative viability (PC-3 [JPC-3]; first compound 0.253 µM): 0.528
relative viability (PC-3 [JPC-3]; first compound 0.8 µM): 0.405
relative viability (PC-3 [JPC-3]; first compound 2.53 µM): 0.485
relative viability (PC-3 [JPC-3]; first compound 8 µM): 0.478
relative viability (NCI-H647; first compound 0.08 µM): 0.896
relative viability (NCI-H647; first compound 0.253 µM): 1.38
relative viability (NCI-H647; first compound 2.53 µM): 0.791
relative viability (NCI-H647; first compound 8 µM): 0.584
relative viability (LCLC-97TM1; first compound 0.08 µM): 0.684
relative viability (LCLC-97TM1; first compound 0.253 µM): 1.67
relative viability (LCLC-97TM1; first compound 0.8 µM): 0.881
relative viability (LCLC-97TM1; first compound 2.53 µM): 0.555
relative viability (LCLC-97TM1; first compound 8 µM): 0.543
relative viability (NCI-H1975; first compound 0.08 µM): 0.839
relative viability (NCI-H1975; first compound 0.253 µM): 1.04
relative viability (NCI-H1975; first compound 0.8 µM): 0.76
relative viability (NCI-H1975; first compound 2.53 µM): 0.879
relative viability (NCI-H1975; first compound 8 µM): 0.895
relative viability (NCI-H1395; first compound 0.08 µM): 0.997
relative viability (NCI-H1395; first compound 0.253 µM): 1.11
relative viability (NCI-H1395; first compound 0.8 µM): 0.949
relative viability (NCI-H1395; first compound 2.53 µM): 1.49
relative viability (NCI-H1395; first compound 8 µM): 1.06
relative viability (HCC-44; first compound 0.08 µM): 0.943
relative viability (HCC-44; first compound 0.253 µM): 0.963
relative viability (HCC-44; first compound 0.8 µM): 0.943
relative viability (HCC-44; first compound 2.53 µM): 0.946
relative viability (HCC-44; first compound 8 µM): 0.962
relative viability (NCI-H1437; first compound 0.08 µM): 0.757
relative viability (NCI-H1437; first compound 0.253 µM): 0.785
relative viability (NCI-H1437; first compound 0.8 µM): 0.746
relative viability (NCI-H1437; first compound 2.53 µM): 0.754
relative viability (NCI-H1437; first compound 8 µM): 0.712
relative viability (LOU-NH91; first compound 0.08 µM): 0.821
relative viability (LOU-NH91; first compound 0.253 µM): 0.833
relative viability (LOU-NH91; first compound 0.8 µM): 0.657
relative viability (LOU-NH91; first compound 2.53 µM): 0.533
relative viability (LOU-NH91; first compound 8 µM): 0.716
relative viability (201T; first compound 0.08 µM): 1
relative viability (201T; first compound 0.253 µM): 1.2
relative viability (201T; first compound 0.8 µM): 0.959
relative viability (201T; first compound 2.53 µM): 0.886
relative viability (201T; first compound 8 µM): 1.05
relative viability (NCI-H1666; first compound 0.08 µM): 0.668
relative viability (NCI-H1666; first compound 0.253 µM): 0.872
relative viability (NCI-H1666; first compound 0.8 µM): 0.54
relative viability (NCI-H1666; first compound 2.53 µM): 0.549
relative viability (NCI-H1666; first compound 8 µM): 0.471
relative viability (LU99A; first compound 0.08 µM): 1.1
relative viability (LU99A; first compound 0.253 µM): 0.959
relative viability (LU99A; first compound 0.8 µM): 0.808
relative viability (LU99A; first compound 2.53 µM): 0.949
relative viability (LU99A; first compound 8 µM): 0.87
relative viability (HCC-827; first compound 0.08 µM): 0.23
relative viability (HCC-827; first compound 0.253 µM): 0.235
relative viability (HCC-827; first compound 0.8 µM): 0.212
relative viability (HCC-827; first compound 2.53 µM): 0.191
relative viability (HCC-827; first compound 8 µM): 0.205
relative viability (EKVX; first compound 0.08 µM): 0.266
relative viability (EKVX; first compound 0.253 µM): 0.211
relative viability (EKVX; first compound 0.8 µM): 0.224
relative viability (EKVX; first compound 2.53 µM): 0.184
relative viability (EKVX; first compound 8 µM): 0.214
